According to the supplement of paper PMC11061612:

How the values were obtained:
[1] = compound: COc1cccc2c1C(=O)c1c(O)c3c(c(O)c1C2=O)C[C@@](O)(C(=O)CO)C[C@@H]3O[C@H]1C[C@H](N)[C@H](O)[C@H](C)O1 [Doxorubicin]; details: max 1 µM
How it was run: (§1)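 Viability was measured with CellTiter-Glo 2.0 luminescence after 72 hours of dosing at a final DMSO of typically 0.2%, and scaled between blank-well and DMSO-well means. Beforehand, cancer cell lines sat 24 hours at 37°C and 5% CO2 in 1536-well plates in 7.5 μl DMEM/F12 or RPMI with 10% FBS. A non-linear mixed effects model fitted two-parameter logistic curves to the dose responses. The single-agent IC50 comes from these fits.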

[2] = compound: Cc1cc2ncnn2cc1Nc1ncc2c(n1)n(C1CCOCC1)c(=O)n2C [AZD7648]; details: max 10 µM
How it was run: as §1

[3] = compound: C1CN(CCC1(C(=O)N[C@@H](CCO)C2=CC=C(C=C2)Cl)N)C3=NC=NC4=C3C=CN4 [Capivasertib]; details: max 10 µM
How it was run: as §1

[4] = compound: Cc1c2c(nn1C)CSCc1cc(n(C)n1)CSc1cc(c3ccccc3c1)OCCCc1c(C(=O)O)n(C)c3c-2c(Cl)ccc13 [AZD5991]; details: max 1 µM
How it was run: as §1

[5] = compound: C[C@@H]1COCCN1C2=NC(=NC(=C2)C3(CC3)[S@](=N)(=O)C)C4=C5C=CNC5=NC=C4 [AZD6738]; details: max 10 µM
How it was run: as §1

[6] = compound: Cc1nc(-c2cn3c(n2)-c2ccc(-c4cnn(C(C)(C)C(N)=O)c4)cc2OCC3)n(C(C)C)n1 [Taselisib]; details: max 10 µM
How it was run: as §1

[7] = compound: CC1=C(C(=CC=C1)Cl)NC(=O)C2=CN=C(S2)NC3=CC(=NC(=N3)C)N4CCN(CC4)CCO [Dasatinib]; details: max 2 µM
How it was run: as §1

[8] = compound: COc1cc2ncnc(Nc3ccc(F)c(Cl)c3)c2cc1OCCCN1CCOCC1 [Gefitinib]; details: max 10 µM
How it was run: as §1

[9] = compound: C=CCn1c(=O)c2cnc(Nc3ccc(N4CCN(C)CC4)cc3)nc2n1-c1cccc(C(C)(C)O)n1 [AZD1775]; details: max 3 µM
How it was run: as §1

[10] = compound: COc1cc(Nc2ncc3c(n2)-c2ccc(Cl)cc2C(c2c(F)cccc2OC)=NC3)ccc1C(=O)O [Alisertib]; details: max 10 µM
How it was run: as §1

[11] = compound: COc1cccc(OCCCN)c1-c1cc(Nc2cnc(C#N)cn2)n[nH]1 [Prexasertib]; details: max 1 µM
How it was run: as §1

[12] = compound: CC(=O)c1c(C)c2cnc(Nc3ccc(N4CCNCC4)cn3)nc2n(C2CCCC2)c1=O [Palbociclib]; details: max 10 µM
How it was run: as §1

[13] = compound: CS(=O)(=O)CCNCc1ccc(-c2ccc3ncnc(Nc4ccc(OCc5cccc(F)c5)c(Cl)c4)c3c2)o1 [Lapatinib]; details: max 10 µM
How it was run: as §1

[14] = compound: CN(C)CCCOc1ccc(-c2ccc3ncc4c(c3c2)n(C2CCOCC2)c(=O)n4C)cn1 [AZD0156]; details: max 3 µM
How it was run: as §1

[15] = compound: CN(CC[C@H](CSC1=CC=CC=C1)NC2=C(C=C(C=C2)S(=O)(=O)NC(=O)C3=CC=C(C=C3)N4CCC(CC4)[C@H](C5=CC=CC=C5C6=CC=C(C=C6)Cl)O)S(=O)(=O)C(F)(F)F)CCO [AZD4320]; details: max 1 µM
How it was run: as §1

[16] = compound: Cn1cnc2c(F)c(Nc3ccc(Br)cc3Cl)c(C(=O)NOCCO)cc21 [Selumetinib]; details: max 10 µM
How it was run: as §1

[17] = compound: CC1(C)CCC(CN2CCN(c3ccc(C(=O)NS(=O)(=O)c4ccc(NCC5CCOCC5)c([N+](=O)[O-])c4)c(Oc4cnc5[nH]ccc5c4)c3)CC2)=C(c2ccc(Cl)cc2)C1 [Venetoclax]; details: max 1 µM
How it was run: as §1

[18] = compound: O=C(c1cc(Cc2n[nH]c(=O)c3ccccc23)ccc1F)N1CCN(C(=O)C2CC2)CC1 [Olaparib]; details: max 10 µM
How it was run: as §1

[19] = compound: CC1=CN2[C@@H](C1)C=NC3=CC(=C(C=C3C2=O)OC)OCCCCCOC4=C(C=C5C(=C4)N=C[C@@H]6CC(=CN6C5=O)C)OC [SG3199]; details: max 0.001 µM
How it was run: as §1

[20] = compound: C[C@@H](Oc1cc(-c2cnn(C3CCNCC3)c2)cnc1N)c1c(Cl)ccc(F)c1Cl [Crizotinib]; details: max 10 µM
How it was run: as §1

[21] = compound: CCc1c2c(nc3ccc(O)cc13)-c1cc3c(c(=O)n1C2)COC(=O)[C@]3(O)CC [SN-38]; details: max 0.3 µM
How it was run: as §1

[22] = compound: C[C@@H](Nc1cc(F)cc(F)c1)c1cc(C(=O)N(C)C)cc2c(=O)cc(N3CCOCC3)oc12 [AZD8186]; details: max 3 µM
How it was run: as §1

[23] = compound: CC(=O)Nc1cccc(-n2c(=O)n(C3CC3)c(=O)c3c(Nc4ccc(I)cc4F)n(C)c(=O)c(C)c32)c1 [Trametinib]; details: max 1 µM
How it was run: as §1

[24] = compound: CCN(CCO)CCCOc1ccc2c(Nc3cc(CC(=O)Nc4cccc(F)c4)[nH]n3)ncnc2c1 [AZD2811]; details: max 1 µM
How it was run: as §1

[25] = compound: COc1nnc2ccc(N3CCC(c4ccc(OCCN5CCN(C)C(=O)[C@H]5C)cc4)CC3)nn12 [AZD5153]; details: max 1 µM
How it was run: as §1

[26] = compound: CC(C)n1c(=O)n(C)c2cnc3cc(F)c(-c4ccc(OCCCN5CCCCC5)nc4)cc3c21 [AZD1390]; details: max 0.3 µM
How it was run: as §1

[27] = compound: C[C@@H](c1ccc2nccn2c1)n1nnc2ncc(-c3cnn(C)c3)nc21 [Savolitinib]; details: max 1 µM
How it was run: as §1

[28] = compound: NC1(c2ccc(-c3nc4ccn5c(=O)[nH]nc5c4cc3-c3ccccc3)cc2)CCC1 [MK-2206]; details: max 10 µM
How it was run: as §1

Cell Line	IC50, cell viability 72 h [1]	IC50, cell viability 72 h [2]	IC50, cell viability 72 h [3]	IC50, cell viability 72 h [4]	IC50, cell viability 72 h [5]	IC50, cell viability 72 h [6]	IC50, cell viability 72 h [7]	IC50, cell viability 72 h [8]	IC50, cell viability 72 h [9]	IC50, cell viability 72 h [10]	IC50, cell viability 72 h [11]	IC50, cell viability 72 h [12]	IC50, cell viability 72 h [13]	IC50, cell viability 72 h [14]	IC50, cell viability 72 h [15]	IC50, cell viability 72 h [16]	IC50, cell viability 72 h [17]	IC50, cell viability 72 h [18]	IC50, cell viability 72 h [19]	IC50, cell viability 72 h [20]	IC50, cell viability 72 h [21]	IC50, cell viability 72 h [22]	IC50, cell viability 72 h [23]	IC50, cell viability 72 h [24]	IC50, cell viability 72 h [25]	IC50, cell viability 72 h [26]	IC50, cell viability 72 h [27]	IC50, cell viability 72 h [28]
JHH-4 (Hepatocellular Carcinoma)	> 1000 nM	> 10000 nM	> 10000 nM	> 1000 nM	> 10000 nM	> 10000 nM	173 nM	> 10000 nM	> 3000 nM	6480 nM	912 nM	> 10000 nM	> 10000 nM	> 3000 nM	> 1000 nM	> 10000 nM	> 1000 nM	> 10000 nM	> 1 nM	> 10000 nM	31 nM	> 3000 nM	118 nM	> 1000 nM	> 1000 nM	> 300 nM	> 1000 nM	–
SK-GT-2 (Gastric Carcinoma)	> 1000 nM	> 10000 nM	> 10000 nM	> 1000 nM	> 10000 nM	6640 nM	> 2000 nM	4890 nM	848 nM	> 10000 nM	76.7 nM	> 10000 nM	1130 nM	> 3000 nM	> 1000 nM	> 10000 nM	> 1000 nM	> 10000 nM	> 1 nM	> 10000 nM	> 300 nM	> 3000 nM	> 1000 nM	> 1000 nM	> 1000 nM	> 300 nM	> 1000 nM	–
H9 (T-Cell Non-Hodgkin's Lymphoma)	83.8 nM	> 10000 nM	3070 nM	413 nM	1310 nM	> 10000 nM	> 2000 nM	7120 nM	416 nM	115 nM	7.26 nM	> 10000 nM	9540 nM	> 3000 nM	142 nM	53.6 nM	> 1000 nM	> 10000 nM	> 1 nM	2360 nM	6.62 nM	> 3000 nM	2.71 nM	26 nM	6.23 nM	> 300 nM	> 1000 nM	818 nM
DAN-G (Pancreatic Carcinoma)	> 1000 nM	> 10000 nM	> 10000 nM	> 1000 nM	5490 nM	718 nM	> 2000 nM	> 10000 nM	405 nM	> 10000 nM	72.7 nM	> 10000 nM	> 10000 nM	> 3000 nM	> 1000 nM	> 10000 nM	> 1000 nM	> 10000 nM	> 1 nM	> 10000 nM	> 300 nM	> 3000 nM	675 nM	> 1000 nM	> 1000 nM	> 300 nM	> 1000 nM	–
NCI-H661 (Non-Small Cell Lung Carcinoma)	> 1000 nM	> 10000 nM	> 10000 nM	> 1000 nM	> 10000 nM	> 10000 nM	> 2000 nM	> 10000 nM	765 nM	> 10000 nM	46.8 nM	> 10000 nM	> 10000 nM	> 3000 nM	> 1000 nM	> 10000 nM	> 1000 nM	> 10000 nM	> 1 nM	> 10000 nM	> 300 nM	> 3000 nM	> 1000 nM	> 1000 nM	> 1000 nM	> 300 nM	> 1000 nM	–
SNU-398 (Hepatocellular Carcinoma)	> 1000 nM	> 10000 nM	> 10000 nM	150 nM	> 10000 nM	> 10000 nM	> 2000 nM	> 10000 nM	701 nM	4320 nM	777 nM	> 10000 nM	> 10000 nM	> 3000 nM	> 1000 nM	> 10000 nM	> 1000 nM	> 10000 nM	> 1 nM	> 10000 nM	> 300 nM	> 3000 nM	849 nM	801 nM	941 nM	> 300 nM	> 1000 nM	–
